Holding throughout (type): functional
In one assay the test system is Aspergillus niger. Briefly: Antimicrobial activity against Aspergillus niger MTCC 404 assessed as growth inhibition after 5 days by broth microdilution method. (In general: In broth dilution the organism is exposed to a series of concentrations in liquid medium.)
The next assay deals with Aspergillus parasiticus. Briefly: Antimicrobial activity against Aspergillus parasiticus MTCC 2797 assessed as growth inhibition after 5 days by broth microdilution method.
The next assay concerns Staphylococcus aureus. Briefly: Antimicrobial activity against Staphylococcus aureus MTCC 3160 assessed as growth inhibition after 24 hr by broth microdilution method.
The test system of another assay is Klebsiella pneumoniae. The assay can be described thus: Antimicrobial activity against Klebsiella pneumoniae MTCC 109 assessed as growth inhibition after 24 hr by broth microdilution method.
In a further assay the test system is Candida albicans. Briefly: Antimicrobial activity against Candida albicans MTCC 3017 assessed as growth inhibition after 24 hr by broth microdilution method.
For a further assay, the system named is Escherichia coli. The assay can be described thus: Antimicrobial activity against Escherichia coli MTCC 43 assessed as growth inhibition after 24 hr by broth microdilution method.
A further assay concerns Aspergillus sydowii. Briefly: Antimicrobial activity against Aspergillus sydowii MTCC 4335 assessed as growth inhibition after 5 days by broth microdilution method.
A further assay concerns Pseudomonas aeruginosa. The assay can be described thus: Antimicrobial activity against Pseudomonas aeruginosa MTCC 424 assessed as growth inhibition after 24 hr by broth microdilution method.
For a further assay, the system named is Burkholderia cepacia. Briefly: Antimicrobial activity against Burkholderia cepacia MTCC 438 assessed as growth inhibition after 24 hr by broth microdilution method.
The test system of the next assay is Trichophyton rubrum. Briefly: Antimicrobial activity against Trichophyton rubrum MTCC 296 assessed as growth inhibition after 5 days by broth microdilution method.
A further assay deals with Bacillus subtilis. Briefly: Antimicrobial activity against Bacillus subtilis MTCC 121 assessed as growth inhibition after 24 hr by broth microdilution method.
Assay [1] has as its system Radical scavenging activity. Briefly: Antioxidant activity assessed as inhibition of DPPH radical formation at 2 mg/ml after 30 min by spectrophotometric analysis. On the technique in general: The DPPH test is a chemical assay of radical scavenging.
The test system of the next assay is Micrococcus luteus. Briefly: Antimicrobial activity against Micrococcus luteus MTCC 2470 assessed as growth inhibition after 24 hr by broth microdilution method.
The next assay deals with Enterobacter cloacae. Briefly: Antimicrobial activity against Enterobacter cloacae MTCC 509 assessed as growth inhibition after 24 hr by broth microdilution method.
For the next assay, the system named is Pichia kudriavzevii. Briefly: Antimicrobial activity against Pichia kudriavzevii MTCC 231 assessed as growth inhibition after 24 hr by broth microdilution method.

Converted amounts (≈) assume the structure as drawn. The source made the active and inactive calls. The rule behind the calls is not given here.

By MIC is commonly meant the least concentration at which growth counts as inhibited. The term inhibition denotes the percentage by which the read-out fell short of the control. In the case of `CC(=O)c1ccc(/N=C/C=C/c2ccc3c(c2)OCO3)cc1`, the MIC in the assay on Aspergillus niger (MTCC 404, 120 h) was 1700 µM (≈ 499 µg/mL); in the assay on Aspergillus parasiticus (MTCC 2797, 120 h), 1700 µM (≈ 499 µg/mL); with Staphylococcus aureus (MTCC 3160, 24 h), 850 µM (≈ 249 µg/mL); with Candida albicans (MTCC 3017, 24 h), 1700 µM (≈ 499 µg/mL); in the assay on Aspergillus sydowii (MTCC 4335, 120 h) it was 850 µM (≈ 249 µg/mL); in the assay on Burkholderia cepacia (MTCC 438, 24 h), 1700 µM (≈ 499 µg/mL). Besides, the MIC stood at 1700 µM (≈ 499 µg/mL) in the assay with Trichophyton rubrum (MTCC 296, 120 h); 850 µM (≈ 249 µg/mL) with Bacillus subtilis (MTCC 121, 24 h); 850 µM (≈ 249 µg/mL) in the assay on Micrococcus luteus (MTCC 2470, 24 h); 1700 µM (≈ 499 µg/mL) with Pichia kudriavzevii (MTCC 231, 24 h). Further, the MIC entry in the assay on Klebsiella pneumoniae, with Escherichia coli, in the assay with Pseudomonas aeruginosa and in the assay with Enterobacter cloacae was “inactive” in each case. The inhibition in [1] is 4.49%.
`C(=C\c1ccc2c(c1)OCO2)/C=N/c1nc2ccccc2s1`: the MIC result in the assay on Aspergillus niger, in the assay on Aspergillus parasiticus and in the assay with Aspergillus sydowii was “inactive” in each case. The MIC in the assay on Staphylococcus aureus (MTCC 3160, 24 h) was 200 µM (≈ 61.7 µg/mL); in the assay on Klebsiella pneumoniae (MTCC 109, 24 h) it was 810 µM (≈ 250 µg/mL); in the assay on Candida albicans (MTCC 3017, 24 h), 810 µM (≈ 250 µg/mL); in the assay on Escherichia coli (MTCC 43, 24 h) it was 810 µM (≈ 250 µg/mL); in the assay on Pseudomonas aeruginosa (MTCC 424, 24 h) it was 810 µM (≈ 250 µg/mL); in the assay with Burkholderia cepacia (MTCC 438, 24 h), 810 µM (≈ 250 µg/mL). For the same molecule, the MIC worked out at 810 µM (≈ 250 µg/mL) in the assay with Trichophyton rubrum (MTCC 296, 120 h); 400 µM (≈ 123 µg/mL) with Bacillus subtilis (MTCC 121, 24 h); 200 µM (≈ 61.7 µg/mL) in the assay with Micrococcus luteus (MTCC 2470, 24 h); 810 µM (≈ 250 µg/mL) in the assay with Enterobacter cloacae (MTCC 509, 24 h); 1620 µM (≈ 500 µg/mL) in the assay on Pichia kudriavzevii (MTCC 231, 24 h). Moreover, the inhibition in [1] turned out to be 3.55%.
On to `NC(=S)N/N=C/C=C/c1ccc2c(c1)OCO2`, for which the MIC result in the assay with Aspergillus niger, in the assay with Aspergillus parasiticus, with Staphylococcus aureus, in the assay with Klebsiella pneumoniae, with Candida albicans and in the assay on Escherichia coli was “inactive” each time. The MIC result with Aspergillus sydowii, in the assay with Pseudomonas aeruginosa, in the assay on Burkholderia cepacia, in the assay with Trichophyton rubrum, in the assay on Bacillus subtilis and in the assay with Micrococcus luteus was “inactive” throughout. Further, the MIC entry with Enterobacter cloacae and with Pichia kudriavzevii was “inactive” in each case. Besides, the inhibition in assay [1] stood at 10.7%.
Regarding `Cc1cc(C(C)(C)C)c(O)c(C(C)(C)C)c1`, the inhibition in [1] was determined as 91.6%.
Consider `C(=C\c1nc2ccccc2[nH]1)/c1ccc2c(c1)OCO2`, for which the MIC in the assay on Aspergillus niger (MTCC 404, 120 h) amounted to 950 µM (≈ 251 µg/mL); in the assay on Aspergillus parasiticus (MTCC 2797, 120 h), 1900 µM (≈ 502 µg/mL); in the assay with Staphylococcus aureus (MTCC 3160, 24 h) it was 1900 µM (≈ 502 µg/mL); in the assay with Klebsiella pneumoniae (MTCC 109, 24 h) it was 1900 µM (≈ 502 µg/mL); in the assay on Candida albicans (MTCC 3017, 24 h) it was 470 µM (≈ 124 µg/mL); in the assay on Escherichia coli (MTCC 43, 24 h), 1900 µM (≈ 502 µg/mL). Also, the MIC was 1900 µM (≈ 502 µg/mL) in the assay with Aspergillus sydowii (MTCC 4335, 120 h); 10 µM (≈ 2.64 µg/mL) in the assay with Pseudomonas aeruginosa (MTCC 424, 24 h); 470 µM (≈ 124 µg/mL) with Burkholderia cepacia (MTCC 438, 24 h); 470 µM (≈ 124 µg/mL) in the assay with Trichophyton rubrum (MTCC 296, 120 h); 3780 µM (≈ 999 µg/mL) with Bacillus subtilis (MTCC 121, 24 h); 1900 µM (≈ 502 µg/mL) in the assay with Micrococcus luteus (MTCC 2470, 24 h). Moreover, the MIC was found to be 950 µM (≈ 251 µg/mL) in the assay on Enterobacter cloacae (MTCC 509, 24 h) and 470 µM (≈ 124 µg/mL) in the assay with Pichia kudriavzevii (MTCC 231, 24 h). The inhibition in assay [1] stood at 32.6%.
Regarding `C(=C\c1ccc2c(c1)OCO2)/C=N/c1ccccc1`, the MIC in the assay with Aspergillus niger (MTCC 404, 120 h) amounted to 990 µM (≈ 249 µg/mL); in the assay with Aspergillus parasiticus (MTCC 2797, 120 h) it was 1990 µM (≈ 500 µg/mL); in the assay with Staphylococcus aureus (MTCC 3160, 24 h) it was 1990 µM (≈ 500 µg/mL); in the assay on Klebsiella pneumoniae (MTCC 109, 24 h), 990 µM (≈ 249 µg/mL); in the assay on Candida albicans (MTCC 3017, 24 h) it was 990 µM (≈ 249 µg/mL); with Escherichia coli (MTCC 43, 24 h), 1990 µM (≈ 500 µg/mL). Also, the MIC in the assay on Aspergillus sydowii (MTCC 4335, 120 h) stood at 1990 µM (≈ 500 µg/mL); with Pseudomonas aeruginosa (MTCC 424, 24 h) it was 250 µM (≈ 62.8 µg/mL); in the assay with Burkholderia cepacia (MTCC 438, 24 h), 490 µM (≈ 123 µg/mL); with Trichophyton rubrum (MTCC 296, 120 h), 990 µM (≈ 249 µg/mL); with Bacillus subtilis (MTCC 121, 24 h) it was 1990 µM (≈ 500 µg/mL); in the assay on Micrococcus luteus (MTCC 2470, 24 h) it was 990 µM (≈ 249 µg/mL). The MIC with Enterobacter cloacae (MTCC 509, 24 h) worked out at 990 µM (≈ 249 µg/mL); with Pichia kudriavzevii (MTCC 231, 24 h) it was 490 µM (≈ 123 µg/mL). Moreover, the inhibition in assay [1] worked out at 25.8%.

These data come from ChEMBL document CHEMBL3046948, “Synthesis and SAR investigation of natural phenylpropene-derived methoxylated cinnamaldehydes and their novel Schiff bases as potent antimicrobial and antioxidant agents” (2013).
